{"source": "paper PMC7696255", "about": "“In-Silico Identified New Natural Sortase A Inhibitors Disrupt S. aureus Biofilm Formation” (International Journal of Molecular Sciences, 2020)", "key": {"S. aureus sortase A [1]": {"molecular_target": "T1, S. aureus sortase A (Staphylococcus aureus, UniProt Q2FV99)", "T1 construct": "purchased AnaSpec AS-72229", "T1 sequence (Q2FV99 whole entry)": "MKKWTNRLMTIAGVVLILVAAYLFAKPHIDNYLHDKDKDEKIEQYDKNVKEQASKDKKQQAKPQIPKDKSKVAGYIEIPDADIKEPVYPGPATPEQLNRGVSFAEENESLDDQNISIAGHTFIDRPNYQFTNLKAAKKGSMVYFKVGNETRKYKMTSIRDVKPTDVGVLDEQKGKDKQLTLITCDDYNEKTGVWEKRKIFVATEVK", "assay": "SrtA enzyme inhibition FRET assay, DABCYL-LPETG-EDANS substrate", "assay_type": "biochemical", "protocol": "(§1) The enzymatic reactions were carried out in black, low-binding polystyrene 384 well plates (Greiner Bio-One). […] SrtA was pre-incubated in the reaction buffer with compounds for 1 h at room temperature prior to the addition of the FRET substrate. Assays were performed in 50 µL reactions with 50 ng of S. aureus sortase A and 25 µM of DABCYL-LPETG-EDANS substrate or 1 µM of 5-FAM/QXL^TM 520 substrate. The inhibitory activity of the compounds was determined by monitoring the rise in fluorescence intensity over 24 h at Ex/Em = 336 nm/490 nm for the DABCYL/EDANS substrate and Ex/Em = 490 nm/520 nm for the 5-FAM/QXL 520 substrate on a Tecan Infinite M1000 Pro reader.\n(§2) Raw fluorescence data were corrected for autofluorescence before computing percentage inhibition values. These percentage inhibition values were plotted against compound concentration using GraphPad Prism version 8.0 by nonlinear regression analysis using least squares fit method for IC50 determination. Testing was performed twice to ensure reproducibility of results."}, "S. aureus sortase A [2]": {"molecular_target": "T1, S. aureus sortase A", "assay": "SrtA enzyme inhibition FRET assay, 5-FAM/QXL 520 substrate", "assay_type": "biochemical", "protocol": "as §1, §2"}, "S. aureus ATCC 25923": {"test_system": "S. aureus ATCC 25923", "assay": "S. aureus whole cell assay (MIC, microbroth dilution)", "assay_type": "cell-based, Staphylococcus aureus", "conditions": "Staphylococcus aureus, ATCC25923, 24 h", "protocol": "(§3) Minimum inhibitory concentration (MIC) tests were performed according to procedures of the Clinical Laboratory Standards Institute (CLSI) with minor changes using the microbroth dilution technique in a 384-well setup. Inoculum of each S. aureus strain was prepared by suspending segregated colonies in sterile saline to a 0.5 McFarland standard. An inoculum of 2–8 × 10^5 CFU/mL was incubated with the compounds for 24 h at 37 °C. Gentamicin (data not shown) was incubated in the same manner as the test compounds and served as a positive control. The effect of the compounds on bacterial growth was calculated by quantifying the optical density at 600 nm on a microplate reader (Tecan, Infinite M1000, Salzburg, Austria). Dilutions of the inoculum were cultivated on agar to verify the validity of the inoculum seeding density and absence of contamination. All tests were executed in triplicate during two separate experiments."}, "[3]": {"test_system": "S. aureus ATCC 33591 (MRSA)", "assay": "S. aureus whole cell assay (MIC, microbroth dilution)", "assay_type": "cell-based, Staphylococcus aureus", "conditions": "24 h", "protocol": "as §3"}, "S. aureus Newman": {"test_system": "S. aureus Newman", "assay": "S. aureus whole cell assay (MIC, microbroth dilution)", "assay_type": "cell-based, Staphylococcus aureus", "protocol": "as §3"}, "A549 cells": {"test_system": "A549 cells", "assay": "Mammalian cell cytotoxicity assay (PrestoBlue)", "assay_type": "cell-based, human", "conditions": "Homo sapiens, A549, 72 h, read-out: Mammalian cell lines IC50", "protocol": "(§4) A549 and HepG2 cells were seeded at 1500 and 2500 cells per well, respectively, in 384-well microplates and incubated at 37 °C in the presence of 5% CO2. The next day, cells were treated with compounds then incubated for an additional 72 h. To assess the cytotoxic effect of the compounds PrestoBlue cell viability reagent (Life Technologies, Carlsbad, CA, USA) was used. After the 72 h incubation with compounds, the 384-well assay plates were incubated with this viability indicator dye for 2 h (A549) and 4 h (HepG2) before fluorescence reading at Ex/Em = 560 nm/590 nm on the Tecan Infinite M1000 Pro reader. Puromycin (data not shown) was used as the positive control against both cell lines. All tests were executed in triplicate on two separate experiments."}, "HepG2 cells": {"test_system": "HepG2 cells", "assay": "Mammalian cell cytotoxicity assay (PrestoBlue)", "assay_type": "cell-based, human", "conditions": "Homo sapiens, HepG2, 72 h, read-out: Mammalian cell lines IC50", "protocol": "as §4"}, "[4]": {"test_system": "S. aureus ATCC 33591 (MRSA) biofilm formation", "assay": "Biofilm inhibitory assay (crystal violet), biofilm formation", "assay_type": "cell-based, Staphylococcus aureus", "conditions": "S. aureus ATCC 33591 (MRSA), biofilm formation, read-out: Biofilm Inhibition IC50", "protocol": "(§5) The effectiveness of SrtA inhibitors in reducing biofilm formation and growth was assessed using the crystal violet (CV) biofilm assay with the following modifications. TSB with 2% glucose (TSB without glucose for E. coli) was inoculated with 10^5 CFU/mL of S. aureus and E. coli overnight cultures. A total of 90µl of this cell suspension was then dispensed into 96-well microtiter plates containing 10 µL of different concentrations of the SrtA inhibitors. After 24 h growth at 37 °C the plates were washed with PBS to remove unbound cells and heat fixed at 60 °C for 30 min. Next, the wells were stained with 0.1% crystal violet solution for 15 min at room temperature. At the completion of the incubation plates were washed 3 times with PBS and dried. Then the crystal violet dye from the biofilm was solubilized with 200 µL of DMSO. A total of 100 µL of this solution was then moved to a new microtiter plate for absorbance measurement at 595 nm. For pre-formed biofilm assay, the plates were prepared and incubated as mentioned earlier, without SrtA inhibitors. After 24 h incubation, the culture supernatant was removed gently and biofilm carefully washed with sterile PBS. Next, 10 µL of different concentrations of SrtA inhibitors with 90 µL of TSB with 2% glucose were added carefully into the wells and incubated at 37 °C for 24 h. The amount of crystal violet staining of biofilm was measured as described above. The results were reported as percent inhibition normalized to the wild type control. Two independent experiments were performed in triplicate to ensure reproducibility."}, "[5]": {"test_system": "S. aureus Newman biofilm formation", "assay": "Biofilm inhibitory assay (crystal violet), biofilm formation", "assay_type": "cell-based, Staphylococcus aureus", "conditions": "CV assay; for IC50: biofilm formation, read-out: Biofilm Inhibition IC50", "protocol": "as §5"}, "[6]": {"test_system": "adherence of S. aureus Newman to fibrinogen", "assay": "Fibrinogen binding assay", "assay_type": "cell-based, Staphylococcus aureus", "conditions": "for IC50: read-out: Fibrinogen adherence Inhibition IC50; for concentration giving ≥90% prevention of S. aureus Newman adherence to fibrinogen: compared to untreated wildtype strain", "protocol": "Fibrinogen binding assay was completed as described but with slight revision. A flat-bottom 96-well plate was covered with fibrinogen protein by adding 50 µL of 20 µg/mL of fibrinogen protein from bovine plasma diluted in saline and incubated at 4 °C for 24 h. The coated plates were gently rinsed twice with PBS and blocked for 60 min with 4% bovine serum albumin (BSA). The plates were then washed 3 times with PBS. For this assay, S. aureus Newman strain was cultivated in TSB at 37 °C to exponential phase (OD600 = 0.5) and then the bacterial culture was incubated with various concentrations of test compound or control for 2.5 h. Then the cells were pelleted by centrifugation at 10,000× g for 10 min, the supernatants were removed and the cell pellets stored at −20 °C. The following day, cell pellets were suspended in PBS and dispersed in 100 μL aliquots to distinct wells of fibrinogen-coated 96-well plates. After 2 h of growth at 37 °C, the bacterial supernatant was discarded and the wells were rinsed gently with 150 µl PBS. Then the bacterial cells were fixed with 2% (v/v) glutaraldehyde and incubated for 30 min at 25 °C. After a wash with PBS, bound cells were stained with 0.1% crystal violet dye for 15 min. Plates were rinsed twice again with PBS, enclosed with aluminum foil, then stored at room temperature to dry overnight. On the next day absorbance was measured at 570 nm. The results were described as the percent of adhesion inhibition normalized to the wild type control. Two independent experiments were performed in triplicate to ensure reproducibility."}, "[7]": {"test_system": "S. aureus Newman pre-formed biofilms", "assay": "Biofilm inhibitory assay (crystal violet), pre-formed biofilms", "assay_type": "cell-based, Staphylococcus aureus", "conditions": "pre-formed biofilms, CV assay, read-out: Biofilm Inhibition IC50", "protocol": "as §5"}}, "note": "“And” between values parts separate entries of the source, which are not always exact repeats. Equal values may be shown once. Read-outs that look alike come from different tables or passages of the source."}
{"smiles": "CC(/C=C/[C@@]1(C)[C@H](C)CCC(=O)[C@@H]1C)=C\\Cc1c(O)c(Cl)c(C)c(C=O)c1O", "note": "[Compound N1321, Ascochlorin]", "values": [{"measurement": "IC50", "setting": "S. aureus sortase A [1]; Sortase A IC50, DABCYL-LPETG-EDANS substrate, 4 h", "result": "> 200", "unit": "µM"}, {"measurement": "IC50", "setting": "S. aureus sortase A [2]; Sortase A IC50, 5-FAM/QXL substrate, 10 min", "result": "> 200", "unit": "µM"}]}
{"smiles": "COc1c(C)c2c(c(O)c1C/C=C(\\C)CCC(=O)OC1c3cc(O)cc(O)c3C(=O)OC1(C)O)C(=O)OC2", "note": "(centres unmarked) [Compound N1871, Antibiotic F 13459]", "values": [{"measurement": "IC50", "setting": "S. aureus sortase A [1]", "result": "> 200", "unit": "µM"}, {"measurement": "IC50", "setting": "S. aureus sortase A [2]", "result": "> 200", "unit": "µM"}]}
{"smiles": "COc1ccc(CC(N)C(=O)NC2C(C(=O)O)OC(n3cnc4c(N)ncnc43)C2O)cc1", "note": "(centres unmarked) [Compound N2238, Chryscandin]", "values": [{"measurement": "IC50", "setting": "S. aureus sortase A [1]", "result": "> 200", "unit": "µM"}, {"measurement": "IC50", "setting": "S. aureus sortase A [2]", "result": "> 200", "unit": "µM"}]}
{"smiles": "CC1=CC2c3c(cc4oc5cc(C)cc(O)c5c4c3C)OC3(O)C(=O)c4oc5cc(C)cc(O)c5c4C(C)(C1)C23", "note": "(centres unmarked) [Compound N2450, Asticolorin B]", "values": [{"measurement": "IC50", "setting": "S. aureus sortase A [1]; read-out: Sortase A IC50, DABCYL-LPETG-EDANS substrate, 4 h", "result": "> 200", "unit": "µM"}, {"measurement": "IC50", "setting": "S. aureus sortase A [2]; read-out: Sortase A IC50, 5-FAM/QXL substrate, 10 min", "result": "> 200", "unit": "µM"}]}
{"smiles": "COc1cc(/C=C/C(=O)CC(=O)/C=C/c2ccc(O)c(OC)c2)ccc1O", "note": "[Curcumin, reference compound]", "values": [{"measurement": "MIC", "setting": "S. aureus ATCC 25923", "result": "> 200", "unit": "µM"}, {"measurement": "MIC", "setting": "[3]; Staphylococcus aureus", "result": "> 200", "unit": "µM"}, {"measurement": "MIC", "setting": "S. aureus Newman; Staphylococcus aureus, NEWMAN, 24 h", "result": "> 200", "unit": "µM"}, {"measurement": "growth inhibition of S. aureus", "setting": "S. aureus Newman; at 200 µM, strain not given", "result": "did not inhibit the growth"}, {"measurement": "IC50", "setting": "A549 cells", "result": "48.2 ± 12.7", "unit": "µM"}, {"measurement": "IC50", "setting": "HepG2 cells", "result": "39.6 ± 5.3", "unit": "µM"}, {"measurement": "IC50", "setting": "[4]; Staphylococcus aureus", "result": "> 150", "unit": "µM"}, {"measurement": "concentration giving >90% inhibition of biofilm formation", "setting": "[5]", "result": 174, "unit": "µM"}, {"measurement": "IC50", "setting": "[5]; Staphylococcus aureus, NEWMAN", "result": "51.2 ± 4.4", "unit": "µM"}, {"measurement": "IC50", "setting": "[5]", "result": 51, "unit": "µM"}, {"measurement": "IC50", "setting": "[6]; Staphylococcus aureus, NEWMAN", "result": "46.5 ± 6.2", "unit": "µM"}, {"measurement": "concentration giving ≥90% prevention of S. aureus Newman adherence to fibrinogen", "setting": "[6]", "result": "> 170", "unit": "µM"}]}
{"smiles": "O=C(O)c1cc[c]([Hg][OH])cc1", "note": "[p-HMB, p-hydroxymercuribenzoic acid, reference compound]", "values": [{"measurement": "IC50", "setting": "S. aureus sortase A [1]; DABCYL-LPETG-EDANS substrate, 4 h, read-out: Sortase A IC50", "result": "0.2 ± 0.07", "unit": "µM"}, {"measurement": "IC50", "setting": "S. aureus sortase A [2]; 5-FAM/QXL substrate, 10 min, read-out: Sortase A IC50", "result": "0.18 ± 0.08", "unit": "µM"}, {"measurement": "S. aureus MIC", "setting": "[3]", "result": "6.7 ± 1.5", "unit": "µM"}, {"measurement": "IC50", "setting": "[4]", "result": "> 150", "unit": "µM"}, {"measurement": "concentration giving >90% inhibition of biofilm formation", "setting": "[5]", "result": 22, "unit": "µM"}, {"measurement": "IC50", "setting": "[5]", "result": "11.9 µM and 12 µM"}, {"measurement": "IC50", "setting": "[7]", "result": "43 ± 3.6", "unit": "µM"}, {"measurement": "IC50", "setting": "[6]; S. aureus Newman", "result": "37.4 ± 5.3", "unit": "µM"}, {"measurement": "concentration giving ≥90% prevention of S. aureus Newman adherence to fibrinogen", "setting": "[6]", "result": "> 170", "unit": "µM"}]}
